Source: publication PMC4436800 (Frontiers in Neuroscience, 2015)
pEC50: −log10 of the molar value.

Key:
[1] = molecular target: T1, Rhopr5HTR2b (R. prolixus serotonin type 2b receptor) (Rhodnius prolixus, UniProt A0A0H4TRR1); assay: aequorin calcium luminescence assay, agonist dose-response in transfected CHOK1-aeq cells; assay type: cell-based
T1 construct: gene 5HT-R2; complete open reading frame (Genbank KP325472) in pcDNA3.1, transiently expressed in CHOK1-aeq cells
T1 sequence (A0A0H4TRR1 1-703): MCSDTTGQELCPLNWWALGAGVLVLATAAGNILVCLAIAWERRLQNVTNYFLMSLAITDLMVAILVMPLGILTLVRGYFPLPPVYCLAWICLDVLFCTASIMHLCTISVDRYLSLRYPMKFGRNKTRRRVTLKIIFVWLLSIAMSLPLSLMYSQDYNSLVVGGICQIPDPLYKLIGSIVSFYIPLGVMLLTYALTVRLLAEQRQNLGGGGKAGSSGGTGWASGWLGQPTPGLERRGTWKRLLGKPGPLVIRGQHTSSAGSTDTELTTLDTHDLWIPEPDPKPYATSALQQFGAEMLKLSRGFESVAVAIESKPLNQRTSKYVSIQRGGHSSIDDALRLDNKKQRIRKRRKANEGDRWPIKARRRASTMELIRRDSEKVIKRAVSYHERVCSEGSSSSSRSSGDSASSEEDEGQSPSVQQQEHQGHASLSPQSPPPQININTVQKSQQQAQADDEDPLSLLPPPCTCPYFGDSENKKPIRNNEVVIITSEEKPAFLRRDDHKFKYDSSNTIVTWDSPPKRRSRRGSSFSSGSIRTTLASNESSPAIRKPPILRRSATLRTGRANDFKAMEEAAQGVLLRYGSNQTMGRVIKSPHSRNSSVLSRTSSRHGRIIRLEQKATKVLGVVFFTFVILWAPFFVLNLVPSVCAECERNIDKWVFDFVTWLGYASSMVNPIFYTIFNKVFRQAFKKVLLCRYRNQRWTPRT

[2] = molecular target: T1, Rhopr5HTR2b (R. prolixus serotonin type 2b receptor); assay: aequorin luminescence, inhibition of […] serotonin response by […] antagonist; assay type: cell-based

Row | SMILES | pEC50 [1] | % inhibition at 10 μM (range for all five antagonists) [2]
1 | CC(N)Cc1c[nH]c2ccc(O)cc12 (stereo not drawn) [alpha-methyl serotonin] | 5.49 | –
2 | CN1CCC(=C2c3ccccc3C=Cc3ccccc32)CC1 [cyproheptadine] | – | ~ 70–50 % inhibition at 10 μM (range for all five antagonists)
3 | O=C(c1ccc(F)cc1)C1CCN(CCn2c(=O)[nH]c3ccccc3c2=O)CC1 [ketanserin] | – | ~ 70–50 % inhibition at 10 μM (range for all five antagonists)
4 | CN1CCN2c3ccccc3Cc3ccccc3C2C1 (stereo not drawn) [mianserin] | – | ~ 70–50 % inhibition at 10 μM (range for all five antagonists)
5 | CC(C)NCC(O)COc1cccc2ccccc12 (stereo not drawn) [propranolol] | – | ~ 70–50 % inhibition at 10 μM (range for all five antagonists)
6 | O=C(CCCN1CCC2(CC1)C(=O)NCN2c1ccccc1)c1ccc(F)cc1 [spiperone] | – | ~ 70–50 % inhibition at 10 μM (range for all five antagonists)
